Experimental data from US11040031B2, “Pyrazole derivatives as MALT1 inhibitors” (Janssen Pharmaceutica NV, priority 2018, dated 2021).

Each molecule was assayed against T1, full-length MALT1 protein (Strep-MALT1(1-824)-His) (Homo sapiens, UniProt Q9UDY8) (assay: biochemical).
T1 sequence (Q9UDY8 1-824): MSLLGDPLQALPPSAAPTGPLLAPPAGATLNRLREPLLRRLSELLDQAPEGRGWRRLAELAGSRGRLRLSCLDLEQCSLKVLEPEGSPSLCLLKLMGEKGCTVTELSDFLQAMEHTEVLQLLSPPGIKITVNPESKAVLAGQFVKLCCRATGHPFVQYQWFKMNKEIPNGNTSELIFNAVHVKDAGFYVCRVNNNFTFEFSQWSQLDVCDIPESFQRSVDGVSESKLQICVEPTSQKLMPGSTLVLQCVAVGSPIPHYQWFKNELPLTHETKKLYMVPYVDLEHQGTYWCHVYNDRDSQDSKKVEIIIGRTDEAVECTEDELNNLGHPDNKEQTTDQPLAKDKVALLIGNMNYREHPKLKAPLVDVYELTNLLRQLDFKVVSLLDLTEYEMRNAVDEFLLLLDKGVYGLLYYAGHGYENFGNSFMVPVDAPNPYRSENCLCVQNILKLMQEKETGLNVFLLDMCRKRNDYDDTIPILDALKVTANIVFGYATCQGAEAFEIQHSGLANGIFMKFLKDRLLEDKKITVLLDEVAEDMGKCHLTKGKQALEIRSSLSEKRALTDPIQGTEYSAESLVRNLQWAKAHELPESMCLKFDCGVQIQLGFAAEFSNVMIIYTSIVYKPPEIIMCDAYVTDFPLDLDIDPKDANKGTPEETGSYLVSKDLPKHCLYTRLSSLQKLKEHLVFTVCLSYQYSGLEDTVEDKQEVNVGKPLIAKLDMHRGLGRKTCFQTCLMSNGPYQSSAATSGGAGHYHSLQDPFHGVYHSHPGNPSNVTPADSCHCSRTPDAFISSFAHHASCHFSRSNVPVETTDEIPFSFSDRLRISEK
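Note: fluorogenic LRSR-AMC substrate cleavage by MALT1, 50 min compound preincubation then 4 h reaction at RT, 11-point dilution from 30 µM, scaled between enzyme-free and untreated enzyme controls.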

| IC50 [nM] | SMILES |
| --- | --- |
| 158 | Cc1cnc([C@H]2CCCO2)cc1-n1ncc(C(=O)Nc2cnc(-n3nccn3)c(Cl)c2)c1C(F)(F)F (single isomer, unassigned) [Cpd 203, (*R)—N-(5-chloro-6-(2H-1,2,3-triazol-2-yl)pyridin-3-yl)-1-(5-methyl-2-(tetrahydrofuran-2-yl)pyridin-4-yl)-5-(trifluoromethyl)-1H-pyrazole-4-carboxamide] |
| 525 | Cc1cnc([C@@H]2CCCO2)cc1-n1ncc(C(=O)Nc2cnc(-n3nccn3)c(Cl)c2)c1C(F)(F)F (single isomer, unassigned) [Cpd 204, (*S)—N-(5-chloro-6-(2H-1,2,3-triazol-2-yl)pyridin-3-yl)-1-(5-methyl-2-(tetrahydrofuran-2-yl)pyridin-4-yl)-5-(trifluoromethyl)-1H-pyrazole-4-carboxamide] |
| 1910 | Cc1cnc([C@H]2COCCO2)cc1-n1ncc(C(=O)Nc2cnc(-n3nccn3)c(Cl)c2)c1C(F)(F)F (single isomer, unassigned) [Cpd 205, (*S)-1-(2-(1,4-dioxan-2-yl)-5-methylpyridin-4-yl)-N-(5-chloro-6-(2H-1,2,3-triazol-2-yl)pyridin-3-yl)-5-(trifluoromethyl)-1H-pyrazole-4-carboxamide] |
| 2040 | Cc1cnc([C@@H]2COCCO2)cc1-n1ncc(C(=O)Nc2cnc(-n3nccn3)c(Cl)c2)c1C(F)(F)F (single isomer, unassigned) [Cpd 206, (*R)-1-(2-(1,4-dioxan-2-yl)-5-methylpyridin-4-yl)-N-(5-chloro-6-(2H-1,2,3-triazol-2-yl)pyridin-3-yl)-5-(trifluoromethyl)-1H-pyrazole-4-carboxamide] |
| 832 | O=C(Nc1cnc(-n2nccn2)c(Cl)c1)c1cnn(-c2ccncc2F)c1C(F)(F)F [Cpd 6, N-(5-Chloro-6-(2H-1,2,3-triazol-2-yl)pyridin-3-yl)-1-(3-fluoropyridin-4-yl)-5-(trifluoromethyl)-1H-pyrazole-4-carboxamide] |
| 1230 | O=C(Nc1cnc(-n2nccn2)c(Cl)c1)c1cnn(-c2ccccn2)c1C(F)(F)F [Cpd 8, N-(5-Chloro-6-(2H-1,2,3-triazol-2-yl)pyridin-3-yl)-1-(pyridin-2-yl)-5-(trifluoromethyl)-1H-pyrazole-4-carboxamide] |
| 2570 | O=C(Nc1cnc(-n2nccn2)c(Cl)c1)c1cnn(-c2cnccn2)c1C(F)(F)F [Cpd 9, N-(5-Chloro-6-(2H-1,2,3-triazol-2-yl)pyridin-3-yl)-1-(pyrazin-2-yl)-5-(trifluoromethyl)-1H-pyrazole-4-carboxamide] |
| 4370 | O=C(Nc1cnc(-n2nccn2)c(Cl)c1)c1cnn(-c2ncccn2)c1C(F)(F)F [Cpd 10, N-(5-Chloro-6-(2H-1,2,3-triazol-2-yl)pyridin-3-yl)-1-(pyrimidin-2-yl)-5-(trifluoromethyl)-1H-pyrazole-4-carboxamide] |
| 4570 | N#Cc1ccc(-n2ncc(C(=O)Nc3cnc(-n4nccn4)c(Cl)c3)c2C(F)(F)F)nc1 [Cpd 11, N-(5-Chloro-6-(2H-1,2,3-triazol-2-yl)pyridin-3-yl)-1-(5-cyanopyridin-2-yl)-5-(trifluoromethyl)-1H-pyrazole-4-carboxamide] |
| 1350 | O=C(Nc1cnc(-n2nccn2)c(Cl)c1)c1cnn(-c2cccnc2)c1C(F)(F)F [Cpd 12, N-(5-Chloro-6-(2H-1,2,3-triazol-2-yl)pyridin-3-yl)-1-(pyridin-3-yl)-5-(trifluoromethyl)-1H-pyrazole-4-carboxamide] |
| 1700 | COc1ccc(-n2ncc(C(=O)Nc3cnc(-n4nccn4)c(Cl)c3)c2C(F)(F)F)cn1 [Cpd 13, N-(5-Chloro-6-(2H-1,2,3-triazol-2-yl)pyridin-3-yl)-1-(6-methoxypyridin-3-yl)-5-(trifluoromethyl)-1H-pyrazole-4-carboxamide] |
| 3470 | O=C(Nc1cnc(-n2nccn2)c(Cl)c1)c1cnn(-c2cncnc2)c1C(F)(F)F [Cpd 15, N-(5-Chloro-6-(2H-1,2,3-triazol-2-yl)pyridin-3-yl)-1-(pyrimidin-5-yl)-5-(trifluoromethyl)-1H-pyrazole-4-carboxamide] |
| 1700 | Cc1cncc(-n2ncc(C(=O)Nc3cnc(-n4nccn4)c(Cl)c3)c2C(F)(F)F)c1 [Cpd 16, N-(5-Chloro-6-(2H-1,2,3-triazol-2-yl)pyridin-3-yl)-1-(5-methylpyridin-3-yl)-5-(trifluoromethyl)-1H-pyrazole-4-carboxamide] |
| 2090 | N#Cc1cncc(-n2ncc(C(=O)Nc3cnc(-n4nccn4)c(Cl)c3)c2C(F)(F)F)c1 [Cpd 17, N-(5-Chloro-6-(2H-1,2,3-triazol-2-yl)pyridin-3-yl)-1-(5-cyanopyridin-3-yl)-5-(trifluoromethyl)-1H-pyrazole-4-carboxamide] |
| 2090 | Cc1cccc(-n2ncc(C(=O)Nc3cnc(-n4nccn4)c(Cl)c3)c2C(F)(F)F)n1 [Cpd 24, N-(5-chloro-6-(2H-1,2,3-triazol-2-yl)pyridin-3-yl)-1-(6-methylpyridin-2-yl)-5-(trifluoromethyl)-1H-pyrazole-4-carboxamide] |
| 2950 | O=C(Nc1cnc(-n2nccn2)c(Cl)c1)c1cnn(-c2ccncc2)c1C(F)F [Cpd 25, N-(5-chloro-6-(2H-1,2,3-triazol-2-yl)pyridin-3-yl)-5-(difluoromethyl)-1-(pyridin-4-yl)-1H-pyrazole-4-carboxamide] |
| 7080 | O=C(Nc1cnc(-n2nccn2)c(Cl)c1)c1cnn(-c2ccccc2)c1F [Cpd 26, N-(5-chloro-6-(2H-1,2,3-triazol-2-yl)pyridin-3-yl)-5-fluoro-1-phenyl-1H-pyrazole-4-carboxamide] |
| 2460 | Cc1cccc(-n2ncc(C(=O)Nc3cnc(-n4nccn4)c(Cl)c3)c2C(F)(F)F)c1 [Cpd 28, N-(5-chloro-6-(2H-1,2,3-triazol-2-yl)pyridin-3-yl)-1 (m-tolyl)-5-(trifluoromethyl)-1H-pyrazole-4-carboxamide] |
| 708 | N#Cc1cc(NC(=O)c2cnn(-c3ncc(Br)cc3Cl)c2C(F)(F)F)cnc1-n1nccn1 [Cpd 30, 1-(5-bromo-3-chloropyridin-2-yl)-N-(5-cyano-6-(2H-1,2,3-triazol-2-yl)pyridin-3-yl)-5-(trifluoromethyl)-1H-pyrazole-4-carboxamide] |
| 6610 | N#Cc1cnc(-n2ncc(C(=O)Nc3cnc(-n4nccn4)c(C#N)c3)c2C(F)(F)F)c(Cl)c1 [Cpd 31, 1-(3-chloro-5-cyanopyridin-2-yl)-N-(5-cyano-6-(2H-1,2,3-triazol-2-yl)pyridin-3-yl)-5-(trifluoromethyl)-1H-pyrazole-4-carboxamide] |
| 513 | Cc1nccc(-n2ncc(C(=O)Nc3cnc(-n4nccn4)c(C#N)c3)c2C(F)(F)F)c1C#N [Cpd 33, 1-(3-Cyano-2-methylpyridin-4-yl)-N-(5-cyano-6-(2H-1,2,3-triazol-2-yl)pyridin-3-yl)-5-(trifluoromethyl)-1H-pyrazole-4-carboxamide] |
| 2240 | N#Cc1cc(NC(=O)c2cnn(-c3ncc(F)cc3C#N)c2C(F)(F)F)cnc1-n1nccn1 [Cpd 35, 1-(3-cyano-5-fluoropyridin-2-yl)-N-(5-cyano-6-(2H-1,2,3-triazol-2-yl)pyridin-3-yl)-5-(trifluoromethyl)-1H-pyrazole-4-carboxamide] |
| 324 | COc1nccc(-n2ncc(C(=O)Nc3cnc(-n4nccn4)c(C#N)c3)c2C(F)(F)F)c1C [Cpd 38, N-(5-cyano-6-(2H-1,2,3-triazol-2-yl)pyridin-3-yl)-1-(2-methoxy-3-methylpyridin-4-yl)-5-(trifluoromethyl)-1H-pyrazole-4-carboxamide] |
| 457 | N#Cc1cc(NC(=O)c2cnn(-c3ccnc(Cl)c3)c2C(F)(F)F)cnc1-n1nccn1 [Cpd 39, 1-(2-chloropyridin-4-yl)-N-(5-cyano-6-(2H-1,2,3-triazol-2-yl)pyridin-3-yl)-5-(trifluoromethyl)-1H-pyrazole-4-carboxamide] |
| 1910 | N#Cc1cc(-n2ncc(C(=O)Nc3cnc(-n4nccn4)c(C#N)c3)c2C(F)(F)F)ccn1 [Cpd 40, N-(5-cyano-6-(2H-1,2,3-triazol-2-yl)pyridin-3-yl)-1-(2-cyanopyridin-4-yl)-5-(trifluoromethyl)-1H-pyrazole-4-carboxamide] |
| 2040 | COc1cc(-n2ncc(C(=O)Nc3cnc(-n4nccn4)c(C#N)c3)c2C(F)(F)F)ccn1 [Cpd 41, N-(5-Cyano-6-(2H-1,2,3-triazol-2-yl)pyridin-3-yl)-1-(2-methoxypyridin-4-yl)-5-(trifluoromethyl)-1H-pyrazole-4-carboxamide] |
| 182 | Cc1nccc(-n2ncc(C(=O)Nc3cnc(-n4nccn4)c(C#N)c3)c2C(F)(F)F)c1C [Cpd 42, N-(5-cyano-6-(2H-1,2,3-triazol-2-yl)pyridin-3-yl)-1-(2,3-dimethylpyridin-4-yl)-5-(trifluoromethyl)-1H-pyrazole-4-carboxamide] |
| 479 | N#Cc1cnccc1-n1ncc(C(=O)Nc2cnc(-n3nccn3)c(C#N)c2)c1C(F)(F)F [Cpd 46, N-(5-cyano-6-(2H-1,2,3-triazol-2-yl)pyridin-3-yl)-1-(3-cyanopyridin-4-yl)-5-(trifluoromethyl)-1H-pyrazole-4-carboxamide] |
